Assay results: patent US11667649B2, “Heteroaromatic macrocyclic ether chemotherapeutic agents” (Nuvalent, Inc., priority 2020, dated 2023)

Tested on: TPM3-NTRK1-wt IC50 / primary target (e.g. CD74-ROS1-wt) IC50, Ba/F3 cells
Experiment: Cell assay TRKA selectivity (TRKA potency divided by primary target potency)
Format: cell-based
Conditions: for TPM3-NTRK1-wt/CD74-ROS1-G2032R: TRKA selectivity ratio: TPM3-NTRK1-wt IC50 / CD74-ROS1-G2032R IC50, Ba/F3 cells; for TPM3-NTRK1-wt/CD74-ROS1-wt: TRKA selectivity ratio: TPM3-NTRK1-wt IC50 / CD74-ROS1-wt IC50, Ba/F3 cells; for TPM3-NTRK1-wt/EML4-ALK-L1196M-G1202R: TRKA selectivity ratio: TPM3-NTRK1-wt IC50 / EML4-ALK-L1196M-G1202R IC50, Ba/F3 cells; for TPM3-NTRK1-wt/EML4-ALK-wt: TRKA selectivity ratio: TPM3-NTRK1-wt IC50 / EML4-ALK-wt IC50, Ba/F3 cells
Text: Genes encoding CD74-ROS1 wild-type (wt), CD74-ROS1 G2032R, CD74-ROS1 S1986F, CD74-ROS1 L2026M, CD74-ROS1 D2033N, EML4-ALK wt (variant 1), EML4-ALK G1202R (variant 1), EML4-ALK L1196M/G1202R (variant 1), EML4-ALK G1202R/G1269A (variant 1), EML4-ALK G1202R/L1198F (variant 1), and TPM3-TRKA were synthesized at GeneRay, cloned into the retroviral construct pMSCV-puro (Biovector), and packaged into retroviral particles. The virus was used to infect Ba/F3 cells (RIKEN) at multiplicity of infection=1 for 1 day. Infected cells were rescued in media (RPMI-1640 with 10% fetal bovine serum and 1% streptomycin and penicillin) supplemented with mouse IL-3 (10 ng/mL) for 2 days, and stable cell lines were selected by IL-3 withdrawal and puromycin (0.8 μg/mL) for 7 days. Monoclones were selected by single-cell dilution in IL-3-free medium containing puromycin (0.8 μg/mL). Transformation of desired genes was confirmed by Sanger sequencing and western blot using the following antibodies: ROS1 (CST #3287), ALK (CST #3633), and pan-TRK (Abcam #76291).
Stable cells were plated at 1,000 cells/well (40 μL) in a 384-well plate for 1 day. Test compounds (40 nL) were then added in a 3-fold dilution series using the TECAN EVO200 liquid handler and incubated for 72 hours. Plates were equilibrated at room temperature for 15 minutes followed by addition of 40 μL CellTiter-Glo reagent (Promega). Luminescence was measured on a plate reader. Half-maximal inhibitory concentration (IC50) was calculated from percent inhibition and inhibitor concentration using four-parameter logistic regression. […] Exemplary data is given in Table 4 (nd is not determined).
TRKA selectivity was calculated by dividing a compound's TRKA potency by its primary target potency (e.g. TPM3-NTRK1-wt IC50/CD74-ROS1-wt IC50). Compound selectivity can be interpreted by binning ratio values: bin A for very high selectivity, ratio>30-fold; bin B for high selectivity, ratio>10-fold; bin C for moderate selectivity, ratio≥1; and bin D for low selectivity, ratio<1. […] (nd=not determined).

| SMILES | TPM3-NTRK1-wt/CD74-ROS1-G2032R | TPM3-NTRK1-wt/CD74-ROS1-wt | TPM3-NTRK1-wt/EML4-ALK-L1196M-G1202R | TPM3-NTRK1-wt/EML4-ALK-wt |
| --- | --- | --- | --- | --- |
| Cc1cc2n(n1)-c1ccc(F)cc1[C@@H](C)Oc1cc(cnc1N)-c1c(cnn1CC1CC1)C2 [Example 109, (19R)-3-(cyclopropylmethyl)-16-fluoro-10,19-dimethyl-20-oxa-3,4,11,12,23-pentaazapentacyclo[19.3.1.0^2,^6.0^8,^12.0^13,^18]pentacosa-1(24),2(6),4,8,10,13,15,17,21(25),22-decaen-22-amine] | A (bin A for very high selectivity, ratio>30-fold) | A (bin A for very high selectivity, ratio>30-fold) | A (bin A for very high selectivity, ratio>30-fold) | A (bin A for very high selectivity, ratio>30-fold) |
| CC1Oc2cc(cnc2N)-c2c(cnn2C(F)F)Cn2ccnc2-c2ccc(F)cc21 (stereo not drawn) [Example 44, 3-(difluoromethyl)-16-fluoro-19-methyl-20-oxa-3,4,8,11,23-pentaazapentacyclo[19.3.1.0^2,^6.0^8,^12.0^13,^18]pentacosa-1(24),2(6),4,9,11,13,15,17,21(25),22-decaen-22-amine] | A (bin A for very high selectivity, ratio>30-fold) | A (bin A for very high selectivity, ratio>30-fold) | C (bin C for moderate selectivity, ratio≥1) | A (bin A for very high selectivity, ratio>30-fold) |
| CCn1ncc2c1-c1cnc(N)c(c1)O[C@H](C)c1cc(F)ccc1-n1nc(F)cc1C2 [Example 71, (19R)-3-ethyl-10,16-difluoro-19-methyl-20-oxa-3,4,11,12,23-pentaazapentacyclo[19.3.1.0^2,^6.0^8,^12.0^13,^18]pentacosa-1(24),2(6),4,8,10,13,15,17,21(25),22-decaen-22-amine] | A (bin A for very high selectivity, ratio>30-fold) | B (bin B for high selectivity, ratio>10-fold) | C (bin C for moderate selectivity, ratio≥1) | B (bin B for high selectivity, ratio>10-fold) |
| CCn1ncc2c1-c1cnc(N)c(c1)O[C@H](C)c1cc(F)ccc1-n1ncc(F)c1C2 [Example 46, (19R)-3-ethyl-9,16-difluoro-19-methyl-20-oxa-3,4,11,12,23-pentaazapentacyclo[19.3.1.0^2,^6.0^8,^12.0^13,^18]pentacosa-1(24),2(6),4,8,10,13,15,17,21(25),22-decaen-22-amine] | A (bin A for very high selectivity, ratio>30-fold) | A (bin A for very high selectivity, ratio>30-fold) | C (bin C for moderate selectivity, ratio≥1) | A (bin A for very high selectivity, ratio>30-fold) |
| CCn1ncc2c1-c1cnc(N)c(c1)OCc1cc(F)ccc1-n1nc(Cl)cc1C2 [Example 75, 10-chloro-3-ethyl-16-fluoro-20-oxa-3,4,11,12,23-pentaazapentacyclo[19.3.1.0^2,^6.0^8,^12.0^13,^18]pentacosa-1(24),2(6),4,8,10,13,15,17,21(25),22-decaen-22-amine] | A (bin A for very high selectivity, ratio>30-fold) | A (bin A for very high selectivity, ratio>30-fold) | C (bin C for moderate selectivity, ratio≥1) | A (bin A for very high selectivity, ratio>30-fold) |
| C[C@H]1Oc2cc(cnc2N)-c2c(C#N)ncn2Cc2cnccc2-c2ccc(F)cc21 [Example 10, (20R)-23-amino-17-fluoro-20-methyl-21-oxa-4,6,10,24-tetraazapentacyclo[20.3.1.0^2,^6.0^8,^13.0^14,^19]hexacosa-1(25),2,4,8(13),9,11,14,16,18,22(26),23-undecaene-3-carbonitrile] | A (bin A for very high selectivity, ratio>30-fold) | D (bin D for low selectivity, ratio<1) | C (bin C for moderate selectivity, ratio≥1) | A (bin A for very high selectivity, ratio>30-fold) |
| C[C@H]1Oc2cc(cnc2N)-c2c(nn(C)c2C#N)Cc2cn(C)nc2-c2ccc(F)cc21 [Example 111, (19R)-22-amino-16-fluoro-4,10,19-trimethyl-20-oxa-4,5,10,11,23-pentaazapentacyclo[19.3.1.0^2,^6.0^8,^12.0^13,^18]pentacosa-1(24),2,5,8,11,13,15,17,21(25),22-decaene-3-carbonitrile] | B (bin B for high selectivity, ratio>10-fold) | A (bin A for very high selectivity, ratio>30-fold) | C (bin C for moderate selectivity, ratio≥1) | A (bin A for very high selectivity, ratio>30-fold) |
| C[C@H]1Oc2cc(cnc2N)-c2c(cnn2CC(F)(F)F)Cc2cn(C)nc2-c2ccc(F)cc21 [Example 27, (19R)-16-fluoro-10,19-dimethyl-3-(2,2,2-trifluoroethyl)-20-oxa-3,4,10,11,23-pentaazapentacyclo[19.3.1.0^2,^6.0^8,^12.0^13,^18]pentacosa-1(24),2(6),4,8,11,13,15,17,21(25),22-decaen-22-amine] | A (bin A for very high selectivity, ratio>30-fold) | A (bin A for very high selectivity, ratio>30-fold) | A (bin A for very high selectivity, ratio>30-fold) | A (bin A for very high selectivity, ratio>30-fold) |
| Cc1nc2c(s1)Cn1ncc(C#N)c1-c1cnc(N)c(c1)O[C@H](C)c1cc(F)ccc1-2 [Example 67, (19R)-22-amino-16-fluoro-10,19-dimethyl-20-oxa-9-thia-5,6,11,23-tetraazapentacyclo[19.3.1.0^2,^6.0^8,^12.0^13,^18]pentacosa-1(24),2,4,8(12),10,13,15,17,21(25),22-decaene-3-carbonitrile] | A (bin A for very high selectivity, ratio>30-fold) | A (bin A for very high selectivity, ratio>30-fold) | C (bin C for moderate selectivity, ratio≥1) | A (bin A for very high selectivity, ratio>30-fold) |
| CCn1ncc2c1-c1cnc(N)c(c1)O[C@H](C)c1cc(F)ccc1-n1nccc1C2 [Example 33, (19R)-3-ethyl-16-fluoro-19-methyl-20-oxa-3,4,11,12,23-pentaazapentacyclo[19.3.1.0^2,^6.0^8,^12.0^13,^18]pentacosa-1(24),2(6),4,8,10,13,15,17,21(25),22-decaen-22-amine] | A (bin A for very high selectivity, ratio>30-fold) | A (bin A for very high selectivity, ratio>30-fold) | B (bin B for high selectivity, ratio>10-fold) | A (bin A for very high selectivity, ratio>30-fold) |
| C[C@H]1Oc2cc(cnc2N)-c2c(cnn2CC2CC2)Cc2cn(C(F)F)nc2-c2ccc(F)cc21 [Example 160, (19R)-3-(cyclopropylmethyl)-10-(difluoromethyl)-16-fluoro-19-methyl-20-oxa-3,4,10,11,23-pentaazapentacyclo[19.3.1.0^2,^6.0^8,^12.0^13,^18]pentacosa-1(24),2(6),4,8,11,13,15,17,21(25),22-decaen-22-amine] | A (bin A for very high selectivity, ratio>30-fold) | A (bin A for very high selectivity, ratio>30-fold) | A (bin A for very high selectivity, ratio>30-fold) | A (bin A for very high selectivity, ratio>30-fold) |
| Cc1nc2c(s1)Cc1nnn(CC3CC3)c1-c1cnc(N)c(c1)O[C@H](C)c1cc(F)ccc1-2 [Example 114, (19R)-3-(cyclopropylmethyl)-16-fluoro-10,19-dimethyl-20-oxa-9-thia-3,4,5,11,23-pentaazapentacyclo[19.3.1.0^2,^6.0^8,^12.0^13,^18]pentacosa-1(24),2(6),4,8(12),10,13,15,17,21(25),22-decaen-22-amine] | A (bin A for very high selectivity, ratio>30-fold) | A (bin A for very high selectivity, ratio>30-fold) | A (bin A for very high selectivity, ratio>30-fold) | A (bin A for very high selectivity, ratio>30-fold) |
